Common to all, as to assay type: in vivo, dd Male mice
Test [1] concerns mice. Kind of test: Analgetic Effect on Acetic Acid-Induced Writhing Method. The conditions noted are these: Mus musculus, oral, 30 minutes before intraperitoneal 0.6% acetic acid, writhing within 20 minutes, Litchfield Wilcoxon method. The method, then: (2) Analgetic Effect on Acetic Acid-Induced Writhing Method:
dd Male mice weighing 18 to 22 g, each group consisting of ten animals were given an intraperitoneal injection of 0.6% acetic acid in a dosage of 0.1 ml/10 g per body weight. The number of writhing syndromes occurring within 20 minutes after the injection was observed. Thereafter, the mice were orally given the test compounds suspended in a 0.2% carboxymethylcellulose solution 30 minutes before the injection of acetic acid. The inhibitory percentage was estimated in comparison with a control in which only a 0.2% carboxymethylcellulose solution was given, and the ED50 values were calculated by the Litchfield Wilcoxon method.
In general terms: In writhing tests, fewer writhes than in controls are read as antinociception.

The subject of test [2] is mice. The test can be described thus: Muscular Relaxing Effect: Inclined Plane Test. Conditions: Mus musculus, oral, veneer inclined at 30 degrees and wire network at 60 degrees, maximum response over 15-180 minutes, Litchfield Wilcoxon method, read-out: ED50 Values, I.P (Inclined Plane Test). The method, then:
(§1) (1) Muscular Relaxing Effect:
(§2) dd Male mice weighing 18 to 22 g, one group consisting of ten animals were orally given the compounds (I) to (III) each suspended in a 0.2% carboxymethylcellulose solution in a dosage of 0.25 ml/10 g per body weight. Mephenesin and 5-(o-chlorobenzyl)-2-oxazoline were used as active placebos. The experiment was carried out according to the methods (a) to (c) as described below, and the ED50 values were calculated by the Litchfield Wilcoxon method, based on the maximum response in each dosage which was measured at intervals of 15, 30, 45, 60, 90, 120, 150 and 180 minutes after the administration of each of the test compounds.
Mice were placed on veneer inclined at an angle of 30 degrees and on a wire network inclined at an angle of 60 degrees of which one mesh was 5 mm square, and the mice sliding down were considered as positive in comparison with their normal behavior.

For test [3], the system named is mice. The test can be described thus: Muscular Relaxing Effect: Rotarod Method. Conditions: Mus musculus, oral, falling within 3 minutes from rod of 3 cm diameter at 10 rpm, maximum response over 15-180 minutes, Litchfield Wilcoxon method, read-out: ED50 Values, R.R (Rotarod Method). The method, then: as §1, §2
Mice were placed on Rotar Load (made by Natsume Seisakusho Co., Ltd.) having a diameter of 3 cm and rotating at a speed of 10 rpm, and their falling (occurring within 3 minutes) was observed.
In general terms: Falling from the rotarod earlier than controls is read as motor impairment.

Test [4] deals with mice. The test can be described thus: Muscular Relaxing Effect: Traction Test. The conditions noted are these: Mus musculus, oral, hind legs on wire within 5 seconds, maximum response over 15-180 minutes, Litchfield Wilcoxon method, read-out: ED50 Values, T.T (Traction Test). How it is done: as §1, §2

Usually ED50 stands for the midpoint of the dose-response relation. Compound `Cc1c(N(C)C)c(=O)n(-c2ccccc2)n1C` [Aminopyrine] returned an ED50 in the test with mice [1] of 64 mg/kg.

On to `O=C1NCC(Cc2ccccc2Cl)O1` (centres unmarked) [Compound A, 5-(o-Chlorobenzyl)-2-oxazolidone, reference compound], for which the ED50 in the test with mice [2] is 330 mg/kg; in the test on mice [3], 210 mg/kg; in the test with mice [1], 40 mg/kg; in the test with mice [4], 390 mg/kg.

Consider `O=C1NCC(CCc2ccccc2)O1` (centres unmarked) [Compound I, 5-Phenethyl-2-oxazolidone], for which the results for the ED50 in the test with mice [2], with mice [3] and in the test with mice [4] were 261 mg/kg, 196 mg/kg and 217 mg/kg, respectively.

Consider `O=C1NCC(CCc2ccccc2F)O1` (centres unmarked) [Compound II, 5-(o-Fluorophenethyl)-2-oxazolidone], for which the ED50 with mice [2] amounted to 297 mg/kg; in the test on mice [3], 194 mg/kg; with mice [4], 230 mg/kg.

As for `O=C1NCC(CCc2ccccc2Cl)O1` (centres unmarked) [Compound III, 5-(o-Chlorophenethyl)-2-oxazolidone], the ED50 in the test with mice [2] was 268 mg/kg; in the test with mice [3] it was 182 mg/kg; in the test on mice [1], 36 mg/kg; in the test on mice [4], 225 mg/kg.

Turning to `Cc1ccccc1OCC(O)CO` (centres unmarked) [Mephenesin, reference compound], the ED50 with mice [2] was determined as 470 mg/kg; in the test with mice [4] it was 460 mg/kg.
